Assay results published in BindingDB's records for doi:10.1016/j.bmcl.2007.02.040 (Merck Research Laboratories, 2007).

Molecular target: Dipeptidyl peptidase 4 (Homo sapiens, UniProt P27487)
Assay: Dipeptidyl Peptidase Inhibition Assay
Details: pH 7.5; 37 °C

Chain of Dipeptidyl peptidase 4 (P27487 whole entry): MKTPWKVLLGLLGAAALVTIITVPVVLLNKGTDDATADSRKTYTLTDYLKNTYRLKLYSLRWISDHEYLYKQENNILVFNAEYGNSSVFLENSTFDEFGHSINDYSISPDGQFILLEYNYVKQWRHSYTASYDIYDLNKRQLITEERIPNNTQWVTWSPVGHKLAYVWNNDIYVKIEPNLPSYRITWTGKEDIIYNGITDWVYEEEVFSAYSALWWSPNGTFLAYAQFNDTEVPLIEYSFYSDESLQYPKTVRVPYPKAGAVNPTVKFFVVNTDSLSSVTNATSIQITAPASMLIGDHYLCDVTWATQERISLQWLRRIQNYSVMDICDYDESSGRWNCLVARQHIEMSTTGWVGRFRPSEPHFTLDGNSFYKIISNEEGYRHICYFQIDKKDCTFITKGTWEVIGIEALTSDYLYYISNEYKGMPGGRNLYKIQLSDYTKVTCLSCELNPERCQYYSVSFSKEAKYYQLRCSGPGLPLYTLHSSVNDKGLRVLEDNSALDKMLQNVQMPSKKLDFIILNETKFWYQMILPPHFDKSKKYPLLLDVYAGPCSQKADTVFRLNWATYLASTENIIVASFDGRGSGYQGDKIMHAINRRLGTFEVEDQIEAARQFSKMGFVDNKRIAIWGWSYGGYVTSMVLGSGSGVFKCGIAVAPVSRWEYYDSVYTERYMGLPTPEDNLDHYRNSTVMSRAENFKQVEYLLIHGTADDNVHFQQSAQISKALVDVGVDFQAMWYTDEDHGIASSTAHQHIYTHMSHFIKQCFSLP

| IC50 | SMILES |
| --- | --- |
| 520 nM | C[C@H](C(=O)N1CCOCC1)[C@@H](C(=O)N(C)C)c1ccc(-c2ccc(F)cc2)cc1 [(2R,3S)-2-[4-(4-fluorophenyl)phenyl]-N,N,3-trimethyl-4-(morpholin-4-yl)-4-oxobutanamide] |
| 8 nM | CC(C)[C@H](Oc1ccc(CNC(=O)[C@@H]2CCCN2C(=O)C[C@H](N)Cc2c(F)c(F)c(F)c(F)c2F)cc1)C(=O)O [(2S)-2-[4-({[(2S)-1-[(3R)-3-amino-4-(2,3,4,5,6-pentafluorophenyl)butanoyl]pyrrolidin-2-yl]formamido}methyl)phenoxy]-3-methylbutanoic acid] |
